From article PMC8218751, “Visualizing Borrelia burgdorferi Infection Using a Small-Molecule Imaging Probe” (Journal of Clinical Microbiology, 2021)

Assays:
B. burgdorferi = B. burgdorferi live bacterial imaging; assay type: cell-based, Borrelia burgdorferi
Procedure: B. burgdorferi strain B31 was obtained from ATCC (ATCC catalog number ATCC-35210). Cultures were grown in Barbour-Stoenner-Kelly medium (BSK-II) created using the Barbour protocol ([19]) without gelatin and supplemented with 6 % rabbit serum (Pel-Freez catalog number 31128-5) at 34°C. Low-passage-number cultures (less than 4) were utilized. Later-stage morphological variants were obtained by increasing culture time to approximately 8 days to achieve a density of ∼10^8/ml counted under dark-field microscopy.
[…] germ agglutinin (WGA) conjugated with Alexa 488 at 10 μg per ml (Biotium catalog number 29022), and cells were then washed with fresh medium and mounted with Prolong Gold with 4′,6-diamidino-2-phenylindole (DAPI). Samples were imaged on a Zeiss Axio Imager upright microscope, using 63× oil objective, and visible light for differential […] contrast (DIC) imaging and excitation at 405, 488, or 633 nm for detection of DAPI, fluorescein isothiocyanate (FITC), or HS-198, respectively.

human Hsp90 = human Hsp90 (Homo sapiens, UniProt P07900); test: FLECS assay, elution of GFP-Hsp90 from ATP Sepharose; assay type: binding; parameters: His6 (N); made in house; host or cells: E. coli BL21(DE3); settings: in words
Procedure: Escherichia coli (strain BL21/DE3) genomic DNA was isolated from a lab culture generated from the cloning/expression bacterium (ThermoFisher catalog no. EC0114) by overnight proteinase K digestion at 56°C, high-salt clarification, and ethanol precipitation. […] Human Hsp90-alpha sequences were derived from cDNA generated from total mRNA of the human breast epithelial line, MCF10A. HtpG DNA sequences were PCR cloned from these DNAs using primers designed to allow in-frame cloning with GFP in the isopropyl-β-D-thiogalactopyranoside (IPTG)-inducible bacterial expression vector. […] Fusion protein cloning was done using the ligation-independent cloning procedure via single-nucleotide T4 DNA polymerase treatment of vector and purified PCR products followed by annealing of complementary single-strand ends before transformation into DH5 E. coli. […] Fusion protein synthesis was induced by incubation with 1 mM IPTG or autoinduction ([17]).
γ-linked ATP Sepharose matrix was generated as described previously by the Haystead lab ([18]). […] The clarified lysate was added to a column containing ATP-bound Sepharose. The column was washed with low-salt buffer (150 mM NaCl, 25 mM HEPES, pH 7.4, 1 mM dithiothreitol [DTT], and 60 mM MgCl2), followed by high-salt buffer (1 M NaCl, 25 mM HEPES, pH 7.4, 1 mM DTT, 0.1% IGEPAL, and 60 mM MgCl2) and once again low-salt buffer to remove unbound protein. Next, the resin with bound proteins (50 μl) was transferred to a 0.2-μm polyvinylidene fluoride filter 96-well plate (Corning) sitting on top of a black flat-bottomed 96-well catch plate (Corning). […] The eluted proteins were measured in a fluorescent plate reader to detect the GFP.
Subtle single amino acid differences are present within the catalytic clefts of these proteins, especially between residues that contact the nucleotide. […] After proteins are bound to the ATP Sepharose resin, small molecules with affinity for the ATP binding site will elute the GFP-fusion protein, which can readily be detected and quantified on a plate fluorometer. […]

In the case of `Cc1nn(-c2ccc(C(=O)N(C)C)c(NCCCOCCOCCOCCOCCOCCCNCc3ccc(C(=C\C=C4/N(CCCCS(=O)(=O)O)c5ccccc5C4(C)C)/C=C/C4=[N+](CCCCS(=O)(=O)[O-])c5ccccc5C4(C)C)cc3)c2)c2c1C(=O)CC(C)(C)C2` [HS-198], the “Uptake, share of B. burgdorferi spirochetes” value (B. burgdorferi; 10 μM, incubated 1 h) is reported as > 90%, the “Accumulation in B. burgdorferi morphological states” value (B. burgdorferi; 10 μM, spirochetes, blebs, aggregates, colocalization with DAPI) is reported as “accumulates in B. burgdorferi in all of its morphological states” and the “Effect on B. burgdorferi morphology or motility” value (B. burgdorferi; overnight incubation, live B. burgdorferi) is reported as “does not appear to affect”. For the same compound, the “Release of recombinant human GFP-Hsp90α from ATP Sepharose beads” value (human Hsp90) was “did not”.
